Experimental data published in the METLIN SMRT retention time set (Domingo-Almenara et al. 2019).

Experiment: gradient 5% acetonitrile 3 min, to 50% in 2 min, to 85% in 15 min, held 3 min, 100 µL/min
Settings: column: Zorbax Extend-C18 2.1 x 50 mm; eluents: water / acetonitrile, 0.1% formic acid
Procedure, shortened: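 Retention times of pure standards were taken from adduct peaks that were selected by computer and manually inspected. Over 3 months, mixtures of ~100 molecules were run by HPLC–quadrupole time-of-flight mass spectrometry in positive and negative ionization mode. The Zorbax Extend-C18 column (2.1 × 50 mm, 1.8 μm) ran at 100 μL/min in water and acetonitrile, each containing 0.1% formic acid, with 40 μL dead volume and 900 μL dwell volume.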

| SMILES | RP-LC retention time [s] |
| --- | --- |
| O=C(CN1CCN(Cc2ccc(F)cc2)C1=O)NC1CCN(Cc2ccccc2)CC1 | 618 |
| Cc1ccc(-c2nnc(SCC(=O)Nc3cccc(Cl)c3C)o2)cc1 | 1020 |
| CN(CCc1noc(COc2ccc(F)cc2)n1)C(=O)Nc1cccc(Br)c1 | 971 |
| Cc1cccc(NC(=O)N2CCCC2C(=O)NC(C)C)c1 (stereo unspecified) | 690 |
| Cc1cccc(S(=O)(=O)N2CCc3c(c(-c4nnc(-c5ccccc5F)o4)nn3C)C2)c1 | 999 |
| O=C1NC(C(=O)NCc2ccco2)Cn2cccc21 (stereo unspecified) | 605 |
| O=C(C1CCCN(c2ccc(-c3ccccc3)nn2)C1)N1CCN(c2ccccc2F)CC1 (stereo unspecified) | 788 |
| CN(C)Cc1cc(C(F)(F)F)ccc1C(O)(c1ccccc1)c1ccccc1 | 883 |
| COc1cccc(-n2c(=O)c(C(=O)Nc3cccc(F)c3)c(O)c3cccnc32)c1 | 1250 |
| CCOc1ccc(NC(=O)C2CCCN(c3cnc4nccnc4c3)C2)cc1 (stereo unspecified) | 689 |
| CCN(CCNC(=O)C1CCN(c2nnc3ccc(Cl)cn23)CC1)c1ccccc1 | 629 |
| Cc1cccc(N2CCN(C(=O)c3c(C)sc4ccn(C)c(=O)c34)CC2)c1 | 769 |
| O=C(Nc1ccccc1-c1nc2ccccc2s1)c1ccno1 | 728 |
| CCCOc1nc2ccccc2nc1N1CCCC(C(=O)Nc2ccc(F)c(Cl)c2)C1 (stereo unspecified) | 1130 |
| Cc1ccc(C(=O)N2CCC(COc3ccc(C(=O)NC(C)C)cc3)CC2)cc1C | 916 |
| Cc1cc(Nc2ccccc2)nn1C(=O)c1ccc([N+](=O)[O-])cc1 | 987 |
| O=C(Nc1cnc(N2CCCCCC2)nc1)c1ccsc1 | 822 |
| COc1ccccc1-c1noc(C2CCCN2C(=O)c2cccc(OC)c2OC)n1 (stereo unspecified) | 993 |
| O=C(CN1c2ccc(F)cc2-c2ccccc2S1(=O)=O)NCc1cccnc1 | 646 |
| O=C(CN1C(=O)COc2ccc(C(=O)N3CCCC3)cc21)NCc1ccc(Cl)cc1 | 745 |
| COc1cc2c(cc1OC)C(C(=O)Nc1ccc(F)cc1F)C(c1cccs1)N(C)C2=O (stereo unspecified) | 827 |
| COc1cccc(CNC(=O)Cn2cnc3c(sc4nc(-c5ccccc5)ccc43)c2=O)c1 | 975 |

| SMILES | RP-LC retention time [s] |
| --- | --- |
| COc1ccc(NC(=O)Cc2csc3nc(-c4cccc(Br)c4)cn23)cc1 | 937 |
| Cc1ccccc1Cn1nc(-c2nc(C(C)(C)C)no2)ccc1=O | 1120 |
| Cc1ccc(-n2nc(N3CCN(C(=O)C4CC4)CC3)ccc2=O)cc1C | 749 |
| Cc1nc(Nc2ccc(F)cn2)sc1C(=O)N1CCN(c2ccccn2)CC1 | 602 |
| NC(=O)C1CCN(C(=O)c2ccc(CN3C(=O)CCn4nc(-c5ccc(Cl)cc5)cc43)cc2)CC1 | 713 |
| CC(C)NC(=O)c1ccc(-c2nnc3ccc(NC(=O)C4CCC4)cn23)cc1 | 724 |
| COc1cccc(CNC(=O)C2CCN(C(=O)c3n[nH]c4ccccc34)CC2)c1 | 641 |
| COCCNC(=O)c1csc(N2CCN(c3ccc(Cl)cc3)CC2)n1 | 972 |
| O=C(NCc1ccc(F)cc1)N1CCC(n2c(-c3ccco3)nc3cccnc32)C1 (stereo unspecified) | 730 |
| CC(C)c1ccc(-c2csc(NC(=O)c3cccc(Cl)c3)n2)cc1 | 1300 |
| COc1ccc(C(C)NC(=O)C2CCN(c3cncnc3N3CCCCC3)CC2)cc1 (stereo unspecified) | 685 |
| Cc1noc(-c2nc(-c3ccc(N(C)C)cc3)no2)n1 | 1030 |
| Cc1ccc(-c2noc(-c3cccc(S(=O)(=O)NC4CCCC4)c3)n2)cc1 | 1360 |
| CCc1onc(C)c1C1CCCN1C(=O)Nc1ccc(C)cc1 (stereo unspecified) | 844 |
| CCOc1ccc(NC(=O)Cn2nc3cc(C)nc(-c4cccc(Cl)c4)n3c2=O)cc1 | 971 |
| O=C(NCc1ccsc1)NC(c1ccccc1)c1ccccc1 | 863 |
| CCn1c(=O)c2ccn(CC(=O)N3CCCc4ccccc43)c2n(CC)c1=O | 776 |
| CC(C)Cn1c(=O)c(C(=O)NCc2ccc(C(F)(F)F)cc2)nc2cccnc21 | 1050 |
| O=C(NCc1ccccc1)C1CCc2nc(N3CCOCC3)ncc2C1 (stereo unspecified) | 696 |
| CCCCC(C)C(=O)N1CCCN(C2=NS(=O)(=O)C(c3ccc(CC)cc3)=C2C)CC1 (stereo unspecified) | 1020 |
| COC(=O)c1ccc(Cn2cnc3nc4c(cc3c2=O)CC(C)CC4)cc1 (stereo unspecified) | 852 |
| CCOC(=O)C1=C(O)C(=O)N(c2ccccc2)C1c1ccccc1 (stereo unspecified) | 881 |

| SMILES | RP-LC retention time [s] |
| --- | --- |
| Cc1nnc(-c2nnc(N3CCC(C)CC3)c3ccccc23)o1 | 824 |
| COc1ccc(N2CCN(C(=O)c3cn4nc(Cl)ccc4n3)CC2)cc1 | 714 |
| CCCCn1c(=O)c2ccccc2n(Cc2nc(-c3ccccc3OC)no2)c1=O | 1050 |
| CSc1cccc(NC(=O)N2CCC(C)(C(=O)NCc3ccc4c(c3)OCO4)CC2)c1 | 837 |
| Cc1ccc(CNC(=O)c2ccc(CN3CCN(C4CCCC4)C(=O)C3=O)cc2)o1 | 728 |
| Cc1ccc(F)c(-n2nnc(C(=O)O)c2-c2cccnc2)c1 | 642 |
| CC1=C(c2ccccc2)S(=O)(=O)N=C1N1CCCN(C(=O)c2ccc(F)cc2)CC1 | 805 |
| Cc1ccc(-c2ccc(=O)n(CCc3nc(-c4ccc5c(c4)OCO5)no3)n2)cc1 | 711 |
| Cc1ccccc1S(=O)(=O)N1CCc2nc(-c3ccc(Cl)cc3)ncc2C1 | 1240 |
| Cc1ccn2cc(-c3ccc(NS(=O)(=O)c4ccc(Cl)cc4)cc3)nc2n1 | 679 |
| Cc1ccccc1Nc1c(-c2cccc(Br)c2)nc2cnccn12 | 1040 |
| Cc1cnc(C(=O)N2CC(n3cc(COc4ccncc4)nn3)C2)cn1 | 553 |
| O=S(=O)(c1cccnc1)N1CC(c2noc(C3CCCN3CC3CC3)n2)C1 (stereo unspecified) | 592 |
| CCOC(=O)C1CCCN(C(=O)c2cn(-c3cc(N4CCSCC4)ncn3)cn2)C1 (stereo unspecified) | 802 |
| Cc1ccccc1S(=O)(=O)N1CCC(c2nc(C(=O)N(C)C)c(C)o2)CC1 | 818 |
| O=C(NC1CCCCC1)c1c2c(nc3ccccc13)CCC2 | 690 |
| O=C(NCc1ccc2c(c1)OCO2)c1ccc(-c2cccs2)nc1 | 863 |
| CCc1nc(-c2cccc(-c3noc(CNS(=O)(=O)c4ccc(F)cc4)n3)c2)cs1 | 1060 |
| CCOc1ccc(N2CC(c3nc(-c4ccc(OC)c(OC)c4)no3)CC2=O)cc1 (stereo unspecified) | 882 |
| CC(=O)Nc1ccc(CC(=O)N2C[C@@H]3CCN(S(C)(=O)=O)C[C@]3(CF)C2)cc1 | 617 |
| Cc1cccc(NC(=O)C2CCN(S(C)(=O)=O)c3ccccc3O2)c1 (stereo unspecified) | 895 |
| Cc1nn(CC(=O)N2CCc3ccccc32)c(=O)c2nn(-c3ccccc3)c(C)c12 | 1050 |
